From patent publication US9040545B2, “Heterocyclyl pyrazolopyrimidine analogues as selective JAK inhibitors” (Cellzome Limited, priority 2010, dated 2015)

Columns and labels:
Aurora A = target: T1, Aurora A (Homo sapiens, UniProt O14965); assay: Kinobeads assay, Aurora A; format: binding; settings: for IC50: lysate of pervanadate-treated Jurkat cells, read-out: Inhibition values (IC50) Aur A
T1 construct: cell lysates from Jurkat cells (ATCC TIB-152) used; endogenous in cells; host or cells: Jurkat cells (ATCC TIB-152), treated with pervanadate
T1 sequence (O14965 1-403): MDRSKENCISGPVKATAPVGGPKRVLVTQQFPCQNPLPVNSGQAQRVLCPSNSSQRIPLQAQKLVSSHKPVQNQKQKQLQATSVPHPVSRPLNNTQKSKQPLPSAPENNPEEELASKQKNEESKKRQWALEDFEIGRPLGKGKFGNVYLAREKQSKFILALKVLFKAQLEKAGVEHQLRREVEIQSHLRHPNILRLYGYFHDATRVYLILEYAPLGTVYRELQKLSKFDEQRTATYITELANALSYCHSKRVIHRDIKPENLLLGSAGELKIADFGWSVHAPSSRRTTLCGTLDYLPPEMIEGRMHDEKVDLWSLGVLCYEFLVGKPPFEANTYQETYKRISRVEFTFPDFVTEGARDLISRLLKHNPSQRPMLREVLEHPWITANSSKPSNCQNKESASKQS

Aurora B = target: T2, Aurora B (Homo sapiens, UniProt Q96GD4); assay: Kinobeads assay, Aurora B; format: binding; settings: for IC50: lysate of pervanadate-treated Jurkat cells, read-out: Inhibition values (IC50) Aur B
T2 construct: cell lysates from Jurkat cells (ATCC TIB-152) used; endogenous in cells; host or cells: Jurkat cells (ATCC TIB-152), treated with pervanadate
T2 sequence (Q96GD4 whole entry): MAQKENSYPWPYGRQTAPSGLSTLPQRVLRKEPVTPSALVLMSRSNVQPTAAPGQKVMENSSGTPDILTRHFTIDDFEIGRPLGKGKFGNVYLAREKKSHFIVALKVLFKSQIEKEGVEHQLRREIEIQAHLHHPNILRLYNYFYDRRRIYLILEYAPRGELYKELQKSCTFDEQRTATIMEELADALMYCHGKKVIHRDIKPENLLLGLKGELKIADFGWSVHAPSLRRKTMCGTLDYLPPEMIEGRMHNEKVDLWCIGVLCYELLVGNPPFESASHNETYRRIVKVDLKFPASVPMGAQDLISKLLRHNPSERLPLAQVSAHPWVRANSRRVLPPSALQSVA

For CN(C)CCCn1cc(Nc2ncc3cnn(Cc4c(F)c(F)cc(N5CCOCC5=O)c4F)c3n2)cn1 [Example 70, 4-(3-((6-((1-(3-(Dimethylamino)propyl)-1H-pyrazol-4-yl)amino)-1H-pyrazolo[3,4-d]pyrimidin-1-yl)methyl)-2,4,5-trifluorophenyl)morpholin-3-one], the “JAK3/AurA Fold Selectivity” value (Aurora A) was greater than 50 Fold, the IC50 (Aurora A) was 1000 to 10000 nM and the “JAK3/AurB Fold Selectivity” value (Aurora B) was 10-50 Fold. It also gave an IC50 (Aurora B) of 100 to 1000 nM.
Cn1cc(Nc2ncc3cnn(Cc4cc(N5CCNCC5=O)cc(F)c4F)c3n2)cn1 [Example 71, 1-(3,4-Difluoro-5-((6-((1-methyl-1H-pyrazol-4-yl)amino)-1H-pyrazolo[3,4-d]pyrimidin-1-yl)methyl)phenyl)piperazin-2-one] was tested, and the “JAK3/AurA Fold Selectivity” value (Aurora A) was 10-50 Fold, the IC50 (Aurora A) was 100 to 1000 nM and the “JAK3/AurB Fold Selectivity” value (Aurora B) was 10-50 Fold. The IC50 (Aurora B) was 100 to 1000 nM.
O=C1CNCCN1c1cc(F)c(F)c(Cn2ncc3cnc(Nc4cnn(CCO)c4)nc32)c1 [Example 72, 1-(3,4-Difluoro-5-((6-((1-(2-hydroxyethyl)-1H-pyrazol-4-yl)amino)-1H-pyrazolo[3,4-d]pyrimidin-1-yl)methyl)phenyl)piperazin-2-one] was tested, and the “JAK3/AurA Fold Selectivity” value (Aurora A) was 10-50 Fold, the IC50 (Aurora A) was 100 to 1000 nM and the “JAK3/AurB Fold Selectivity” value (Aurora B) was 10-50 Fold. It also gave an IC50 (Aurora B) of 100 to 1000 nM.
Cn1cc(Nc2ncc3cnn(Cc4cc(F)cc(N5CCOCC5=O)c4F)c3n2)cn1 [Example 73, 4-(2,5-Difluoro-3-((6-((1-methyl-1H-pyrazol-4-yl)amino)-1H-pyrazolo[3,4-d]pyrimidin-1-yl)methyl)phenyl)morpholin-3-one] was tested, and the “JAK3/AurA Fold Selectivity” value (Aurora A) was 10-50 Fold, the IC50 (Aurora A) was 100 to 1000 nM and the “JAK3/AurB Fold Selectivity” value (Aurora B) was 10-50 Fold. It also gave an IC50 (Aurora B) of 100 to 1000 nM.
With O=C1COCCN1c1cc(F)cc(Cn2ncc3cnc(Nc4cnn(CCO)c4)nc32)c1F [Example 74, 4-(2,5-Difluoro-3-((6-((1-(2-hydroxyethyl)-1H-pyrazol-4-yl)amino)-1H-pyrazolo[3,4-d]pyrimidin-1-yl)methyl)phenyl)morpholin-3-one] the “JAK3/AurA Fold Selectivity” value (Aurora A) was 10-50 Fold, the IC50 (Aurora A) was less than 100 nM and the “JAK3/AurB Fold Selectivity” value (Aurora B) was 10-50 Fold. For the same compound, the IC50 (Aurora B) was less than 100 nM.
With CN(C)CCCn1cc(Nc2ncc3cnn(Cc4c(F)ccc(N5CCOCC5=O)c4F)c3n2)cn1 [Example 75, 4-(3-((6-((1-(3-(Dimethylamino)propyl)-1H-pyrazol-4-yl)amino)-1H-pyrazolo[3,4-d]pyrimidin-1-yl)methyl)-2,4-difluorophenyl)morpholin-3-one] the “JAK3/AurA Fold Selectivity” value (Aurora A) was 10-50 Fold, the IC50 (Aurora A) was 100 to 1000 nM and the “JAK3/AurB Fold Selectivity” value (Aurora B) was 3-10 Fold. It also gave an IC50 (Aurora B) of less than 100 nM.
For Cn1cc(Nc2ncc3cnn(Cc4c(F)ccc(N5CCNCC5=O)c4F)c3n2)cn1 [Example 76, 1-(2,4-Difluoro-3-((6-((1-methyl-1H-pyrazol-4-yl)amino)-1H-pyrazolo[3,4-d]pyrimidin-1-yl)methyl)phenyl)piperazin-2-one], the “JAK3/AurA Fold Selectivity” value (Aurora A) was 3-10 Fold, the IC50 (Aurora A) was less than 100 nM and the “JAK3/AurB Fold Selectivity” value (Aurora B) was 3-10 Fold. For the same compound, the IC50 (Aurora B) was 100 to 1000 nM.
COC1CCN(c2cccc(Cn3ncc4cnc(Nc5cnn(C)c5)nc43)c2)CC1 [Example 77, 1-(3-(4-Methoxypiperidin-1-yl)benzyl)-N-(1-methyl-1H-pyrazol-4-yl)-1H-pyrazolo[3,4-d]pyrimidin-6-amine] was tested, and the “JAK3/AurA Fold Selectivity” value (Aurora A) was 3-10 Fold, the IC50 (Aurora A) was 100 to 1000 nM and the “JAK3/AurB Fold Selectivity” value (Aurora B) was 3-10 Fold. The IC50 (Aurora B) was 100 to 1000 nM.
For OCCn1cc(Nc2ncc3cnn(Cc4cc(N5CCNCC5)cc(F)c4F)c3n2)cn1 [Example 78, 2-(4-((1-(2,3-Difluoro-5-(piperazin-1-yl)benzyl)-1H-pyrazolo[3,4-d]pyrimidin-6-yl)amino)-1H-pyrazol-1-yl)ethanol], the “JAK3/AurA Fold Selectivity” value (Aurora A) was 10-50 Fold, the IC50 (Aurora A) was 100 to 1000 nM and the “JAK3/AurB Fold Selectivity” value (Aurora B) was 3-10 Fold. It also gave an IC50 (Aurora B) of less than 100 nM.
In the case of Cn1cc(Nc2ncc3cnn(Cc4cc(F)cc(C(=O)N5CCOCC5)c4)c3n2)cn1 [Example 79, (3-Fluoro-5-((6-((1-methyl-1H-pyrazol-4-yl)amino)-1H-pyrazolo[3,4-d]pyrimidin-1-yl)methyl)phenyl)(morpholino)methanone], the “JAK3/AurA Fold Selectivity” value (Aurora A) is reported as 10-50 Fold, the IC50 (Aurora A) is reported as 100 to 1000 nM and the “JAK3/AurB Fold Selectivity” value (Aurora B) is reported as greater than 50 Fold. It also gave an IC50 (Aurora B) of 1000 to 10000 nM.
In the case of Cn1cc(Nc2ncc3cnn(Cc4cc(F)cc(C(=O)N5CCNCC5)c4)c3n2)cn1 [Example 80, (3-Fluoro-5-((6-((1-methyl-1H-pyrazol-4-yl)amino)-1H-pyrazolo[3,4-d]pyrimidin-1-yl)methyl)phenyl)(piperazin-1-yl)methanone], the “JAK3/AurA Fold Selectivity” value (Aurora A) is reported as 3-10 Fold, the IC50 (Aurora A) is reported as 100 to 1000 nM and the “JAK3/AurB Fold Selectivity” value (Aurora B) is reported as 10-50 Fold. The IC50 (Aurora B) was 100 to 1000 nM.
With Fc1cc(N2CCOCC2)c(F)c(Cn2ncc3cnc(Nc4cn[nH]c4)nc32)c1F [Example 81, N-(1H-Pyrazol-4-yl)-1-(2,3,6-trifluoro-5-morpholinobenzyl)-1H-pyrazolo[3,4-d]pyrimidin-6-amine] the “JAK3/AurA Fold Selectivity” value (Aurora A) was greater than 50 Fold, the IC50 (Aurora A) was 100 to 1000 nM and the “JAK3/AurB Fold Selectivity” value (Aurora B) was 10-50 Fold. It also gave an IC50 (Aurora B) of 100 to 1000 nM.
OCCn1cc(Nc2ncc3cnn(Cc4c(F)ccc(N5CCOCC5)c4F)c3n2)cn1 [Example 82, 2-(4-((1-(2,6-Difluoro-3-morpholinobenzyl)-1H-pyrazolo[3,4-d]pyrimidin-6-yl)amino)-1H-pyrazol-1-yl)ethanol] was tested, and the “JAK3/AurA Fold Selectivity” value (Aurora A) was 3-10 Fold, the IC50 (Aurora A) was 100 to 1000 nM and the “JAK3/AurB Fold Selectivity” value (Aurora B) was 3-10 Fold. For the same compound, the IC50 (Aurora B) was less than 100 nM.
For OCCn1cc(Nc2ncc3cnn(Cc4cccc(N5CCNCC5)c4F)c3n2)cn1 [Example 83, 2-(4-((1-(2-Fluoro-3-(piperazin-1-yl)benzyl)-1H-pyrazolo[3,4-d]pyrimidin-6-yl)amino)-1H-pyrazol-1-yl)ethanol], the “JAK3/AurA Fold Selectivity” value (Aurora A) was 10-50 Fold, the IC50 (Aurora A) was 100 to 1000 nM and the “JAK3/AurB Fold Selectivity” value (Aurora B) was 3-10 Fold. For the same compound, the IC50 (Aurora B) was less than 100 nM.
With O=C1COCCN1c1cc(F)cc(Cn2ncc3cnc(Nc4cn[nH]c4)nc32)c1 [Example 84, 4-(3-((6-((1H-Pyrazol-4-yl)amino)-1H-pyrazolo[3,4-d]pyrimidin-1-yl)methyl)-5-fluorophenyl)morpholin-3-one] the “JAK3/AurA Fold Selectivity” value (Aurora A) was greater than 50 Fold, the IC50 (Aurora A) was 100 to 1000 nM and the “JAK3/AurB Fold Selectivity” value (Aurora B) was 10-50 Fold. For the same compound, the IC50 (Aurora B) was 100 to 1000 nM.
O=C(c1cccc(Cn2ncc3cnc(Nc4cnn(CCO)c4)nc32)c1F)N1CCOCC1 [Example 85, (2-Fluoro-3-((6-((1-(2-hydroxyethyl)-1H-pyrazol-4-yl)amino)-1H-pyrazolo[3,4-d]pyrimidin-1-yl)methyl)phenyl)(morpholino)methanone] was tested, and the “JAK3/AurA Fold Selectivity” value (Aurora A) was greater than 50 Fold, the IC50 (Aurora A) was 100 to 1000 nM and the “JAK3/AurB Fold Selectivity” value (Aurora B) was greater than 50 Fold. For the same compound, the IC50 (Aurora B) was 1000 to 10000 nM.
In the case of Cn1cc(Nc2ncc3cnn(Cc4cc(N5CCNCC5)cc(F)c4F)c3n2)cn1 [Example 86, 1-(2,3-Difluoro-5-(piperazin-1-yl)benzyl)-N-(1-methyl-1H-pyrazol-4-yl)-1H-pyrazolo[3,4-d]pyrimidin-6-amine], the “JAK3/AurA Fold Selectivity” value (Aurora A) is reported as greater than 50 Fold, the IC50 (Aurora A) is reported as 1000 to 10000 nM and the “JAK3/AurB Fold Selectivity” value (Aurora B) is reported as 10-50 Fold. The IC50 (Aurora B) was 100 to 1000 nM.
In the case of Cn1cc(Nc2ncc3cnn(Cc4cccc(C(=O)N5CCOCC5)c4F)c3n2)cn1 [Example 87, (2-Fluoro-3-((6-((1-methyl-1H-pyrazol-4-yl)amino)-1H-pyrazolo[3,4-d]pyrimidin-1-yl)methyl)phenyl)(morpholino)methanone], the “JAK3/AurA Fold Selectivity” value (Aurora A) is reported as greater than 50 Fold, the IC50 (Aurora A) is reported as 1000 to 10000 nM and the “JAK3/AurB Fold Selectivity” value (Aurora B) is reported as greater than 50 Fold. For the same compound, the IC50 (Aurora B) was 1000 to 10000 nM.
Cn1cc(Nc2ncc3cnn(Cc4cccc(N5CCOCC5O)c4)c3n2)cn1 (stereo not shown) [Example 88, 4-(3-((6-((1-Methyl-1H-pyrazol-4-yl)amino)-1H-pyrazolo[3,4-d]pyrimidin-1-yl)methyl)phenyl)morpholin-3-ol] was tested, and the “JAK3/AurA Fold Selectivity” value (Aurora A) was 10-50 Fold, the IC50 (Aurora A) was 1000 to 10000 nM and the “JAK3/AurB Fold Selectivity” value (Aurora B) was greater than 50 Fold. The IC50 (Aurora B) was 1000 to 10000 nM.
